Measured values from ChEMBL document CHEMBL1201861, “Genomics of Drug Sensitity in Cancer screening data, Wellcome Trust Sanger Institute”.

Experiments:
Format in all cases: functional, cell-based
[1] = tested on: OVCAR-8; assay: cells; details: Homo sapiens;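 further: growth inhibition of human OVCAR-8 cells, read out by a cell viability assay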
Description: SANGER: Inhibition of human OVCAR-8 cell growth in a cell viability assay.

[2] = tested on: SR; assay: cells; details: Homo sapiens
Description: SANGER: Inhibition of human SR cell growth in a cell viability assay.

[3] = tested on: HN; assay: cells; details: Homo sapiens
Description: SANGER: Inhibition of human HN cell growth in a cell viability assay.

[4] = tested on: NB1; assay: cells; details: Homo sapiens;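 further: reduction of NB1 cell proliferation, read out with a viability assay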
Description: SANGER: Inhibition of human NB1 cell growth in a cell viability assay.

[5] = tested on: DMS-153; assay: cells; details: Homo sapiens
Description: SANGER: Inhibition of human DMS-153 cell growth in a cell viability assay.

[6] = tested on: HCC38; assay: cells; details: Homo sapiens;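 further: cell viability assay on the human HCC38 cell line, with IC50 marking the concentration that inhibits cell growth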
Description: SANGER: Inhibition of human HCC38 cell growth in a cell viability assay.

[7] = tested on: CAL-39; assay: cells; details: Homo sapiens;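 further: cell viability assay measuring growth inhibition of CAL-39 cells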
Description: SANGER: Inhibition of human CAL-39 cell growth in a cell viability assay.

[8] = tested on: SW756; assay: cells; details: Homo sapiens;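 further: growth inhibition of human SW756 cells, read out with a cell viability assay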
Description: SANGER: Inhibition of human SW756 cell growth in a cell viability assay.

[9] = tested on: RPMI-2650; assay: cells; details: Homo sapiens
Description: SANGER: Inhibition of human RPMI-2650 cell growth in a cell viability assay.

[10] = tested on: MC-CAR; assay: cells; details: Homo sapiens;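 further: growth inhibition of the human MC-CAR cell line, read out by a cell viability assay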
Description: SANGER: Inhibition of human MC-CAR cell growth in a cell viability assay.

[11] = tested on: TUR; assay: cells; details: Homo sapiens;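 further: growth inhibition of human TUR cells, read out with a cell viability assay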
Description: SANGER: Inhibition of human TUR cell growth in a cell viability assay.

[12] = tested on: CAMA-1; assay: cells; details: Homo sapiens;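 further: growth inhibition of CAMA-1 cells, read out with a cell viability assay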
Description: SANGER: Inhibition of human CAMA-1 cell growth in a cell viability assay.

[13] = tested on: CAL-33; assay: cells; details: Homo sapiens;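 further: growth inhibition of CAL-33 cells, read out with a cell viability assay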
Description: SANGER: Inhibition of human CAL-33 cell growth in a cell viability assay.

[14] = tested on: IPC-298; assay: SANGER: Inhibition of human IPC-298 cell growth in a cell viability assay.
[15] = tested on: KMS-12-PE; assay: cells; details: Homo sapiens;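 further: growth inhibition of human KMS-12-PE cells, measured with a cell viability assay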
Description: SANGER: Inhibition of human KMS-12-PE cell growth in a cell viability assay.

[16] = tested on: Calu-1; assay: SANGER: Inhibition of human Calu-1 cell growth in a cell viability assay.
[17] = tested on: T47D; assay: cells; details: Homo sapiens;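 further: growth inhibition of human T47D cells, measured with a cell viability assay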
Description: SANGER: Inhibition of human T47D cell growth in a cell viability assay.

[18] = tested on: NCI-H2009; assay: cells; details: Homo sapiens;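 further: cell viability assay measuring inhibition of NCI-H2009 cell growth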
Description: SANGER: Inhibition of human NCI-H2009 cell growth in a cell viability assay.

[19] = tested on: HuO-3N1; assay: cells; details: Homo sapiens;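 further: cell viability readout used to measure how strongly compounds suppress proliferation of human HuO-3N1 cells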
Description: SANGER: Inhibition of human HuO-3N1 cell growth in a cell viability assay.

[20] = tested on: EFM-19; assay: cells; details: Homo sapiens;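 further: growth inhibition of human EFM-19 cells, measured in a cell viability assay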
Description: SANGER: Inhibition of human EFM-19 cell growth in a cell viability assay.

[21] = tested on: SJRH30; assay: cells; details: Homo sapiens;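 further: growth inhibition of human SJRH30 cells, read out with a cell viability assay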
Description: SANGER: Inhibition of human SJRH30 cell growth in a cell viability assay.

[22] = tested on: HMV-2 cell line; assay: cells; details: Homo sapiens;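 further: growth inhibition of HMV-II cells, read out with a cell viability assay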
Description: SANGER: Inhibition of human HMV-II cell growth in a cell viability assay.

[23] = tested on: NUGC-3; assay: cells; details: Homo sapiens;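 further: growth inhibition of human NUGC-3 cells, read out with a cell viability assay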
Description: SANGER: Inhibition of human NUGC-3 cell growth in a cell viability assay.

[24] = tested on: KYSE-150 cell line; assay: cells; details: Homo sapiens;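 further: growth inhibition of human KYSE-150 cells, read out with a cell viability assay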
Description: SANGER: Inhibition of human KYSE-150 cell growth in a cell viability assay.

[25] = tested on: HCC2157; assay: cells; details: Homo sapiens;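 further: growth inhibition of the cancer cell line, read out as cell viability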
Description: SANGER: Inhibition of human HCC2157 cell growth in a cell viability assay.

[26] = tested on: C3A; assay: cells; details: Homo sapiens;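 further: growth inhibition of C3A human cells, quantified with a cell viability readout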
Description: SANGER: Inhibition of human C3A cell growth in a cell viability assay.

[27] = tested on: EW-7; assay: SANGER: Inhibition of human EW-7 cell growth in a cell viability assay.
[28] = tested on: NCI-H596; assay: cells; details: Homo sapiens;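 further: growth inhibition of NCI-H596 cells, read out with a cell viability assay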
Description: SANGER: Inhibition of human NCI-H596 cell growth in a cell viability assay.

[29] = tested on: MG-63; assay: cells; details: Homo sapiens;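 further: growth inhibition of human MG-63 cells, read out with a cell viability assay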
Description: SANGER: Inhibition of human MG-63 cell growth in a cell viability assay.

[30] = tested on: VMRC-RCZ; assay: cells; details: Homo sapiens
Description: SANGER: Inhibition of human VMRC-RCZ cell growth in a cell viability assay.

[31] = tested on: MHH-CALL-2; assay: cells; details: Homo sapiens;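 further: growth inhibition of the cell line, read out in a cell viability assay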
Description: SANGER: Inhibition of human MHH-CALL-2 cell growth in a cell viability assay.

[32] = tested on: SNU-423; assay: cells; details: Homo sapiens
Description: SANGER: Inhibition of human SNU-423 cell growth in a cell viability assay.

[33] = tested on: Ca-Ski; assay: cells; details: Homo sapiens;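 further: cell viability assay measuring inhibition of Ca-Ski cell growth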
Description: SANGER: Inhibition of human Ca-Ski cell growth in a cell viability assay.

[34] = tested on: NCI-H2347; assay: cells; details: Homo sapiens;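 further: growth inhibition of the cell line, read out with a cell viability assay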
Description: SANGER: Inhibition of human NCI-H2347 cell growth in a cell viability assay.

[35] = tested on: NCI-H460; assay: cells; details: Homo sapiens;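 further: cell viability assay scoring growth inhibition of human NCI-H460 cells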
Description: SANGER: Inhibition of human NCI-H460 cell growth in a cell viability assay.

[36] = tested on: DG-75; assay: cells; details: Homo sapiens;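 further: growth inhibition of DG-75 cells, read out with a cell viability assay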
Description: SANGER: Inhibition of human DG-75 cell growth in a cell viability assay.

[37] = tested on: NCI-H748; assay: cells; details: Homo sapiens;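 further: growth inhibition of NCI-H748 cells, measured by a cell viability assay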
Description: SANGER: Inhibition of human NCI-H748 cell growth in a cell viability assay.

[38] = tested on: U-251; assay: cells; details: Homo sapiens;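 further: growth inhibition of human U-251 cells, read out through a cell viability assay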
Description: SANGER: Inhibition of human U251 cell growth in a cell viability assay.

[39] = tested on: NCI-H64; assay: cells; details: Homo sapiens;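 further: growth inhibition of NCI-H64 cells, read out with a cell viability assay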
Description: SANGER: Inhibition of human NCI-H64 cell growth in a cell viability assay.

[40] = tested on: RMG-I; assay: cells; details: Homo sapiens;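 further: growth inhibition of human RMG-I cells, read out with a cell viability assay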
Description: SANGER: Inhibition of human RMG-I cell growth in a cell viability assay.

[41] = tested on: CMK; assay: cells; details: Homo sapiens;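 further: growth inhibition of CMK cells, read out as cell viability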
Description: SANGER: Inhibition of human CMK cell growth in a cell viability assay.

[42] = tested on: CAL-54; assay: cells; details: Homo sapiens;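 further: growth inhibition of CAL-54 cells, read out by a viability measurement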
Description: SANGER: Inhibition of human CAL-54 cell growth in a cell viability assay.

[43] = tested on: RT-4; assay: SANGER: Inhibition of human RT4 cell growth in a cell viability assay.
[44] = tested on: TGW; assay: cells; details: Homo sapiens;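 further: growth inhibition of human TGW cells, read out with a cell viability assay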
Description: SANGER: Inhibition of human TGW cell growth in a cell viability assay.

[45] = tested on: DK-MG; assay: cells; details: Homo sapiens;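 further: growth inhibition of DK-MG cells, read out with a cell viability assay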
Description: SANGER: Inhibition of human DK-MG cell growth in a cell viability assay.

[46] = tested on: MC-IXC; assay: cells; details: Homo sapiens;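 further: growth inhibition of MC-IXC cells, read out with a cell viability assay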
Description: SANGER: Inhibition of human MC-IXC cell growth in a cell viability assay.

[47] = tested on: PA-1; assay: cells; details: Homo sapiens;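 further: IC50 for suppression of PA-1 cell proliferation, determined with a cell viability read-out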
Description: SANGER: Inhibition of human PA-1 cell growth in a cell viability assay.

[48] = tested on: YKG-1; assay: cells; details: Homo sapiens;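 further: cell growth inhibition, read out with a viability assay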
Description: SANGER: Inhibition of human YKG-1 cell growth in a cell viability assay.

[49] = tested on: IST-SL2; assay: cells; details: Homo sapiens;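 further: growth inhibition of human IST-SL2 cells, read out by a cell viability assay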
Description: SANGER: Inhibition of human IST-SL2 cell growth in a cell viability assay.

[50] = tested on: HOP-92; assay: cells; details: Homo sapiens;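 further: cell viability readout, with IC50 reflecting inhibition of HOP-92 cell growth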
Description: SANGER: Inhibition of human HOP-92 cell growth in a cell viability assay.

[51] = tested on: SW1783; assay: cells; details: Homo sapiens
Description: SANGER: Inhibition of human SW1783 cell growth in a cell viability assay.

[52] = tested on: LCLC-97TM1; assay: cells; details: Homo sapiens;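 further: cell viability assay measuring growth inhibition of human LCLC-97TM1 cells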
Description: SANGER: Inhibition of human LCLC-97TM1 cell growth in a cell viability assay.

[53] = tested on: Hs-578T; assay: cells; details: Homo sapiens
Description: SANGER: Inhibition of human Hs-578-T cell growth in a cell viability assay.

[54] = tested on: AN3-CA; assay: cells; details: Homo sapiens;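 further: growth inhibition of human AN3-CA cells measured by a cell viability assay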
Description: SANGER: Inhibition of human AN3-CA cell growth in a cell viability assay.

[55] = tested on: T-24; assay: cells; details: Homo sapiens;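 further: growth inhibition of T-24 cells, read out with a cell viability assay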
Description: SANGER: Inhibition of human T-24 cell growth in a cell viability assay.

[56] = tested on: CAL-27; assay: cells; details: Homo sapiens;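 further: Viability-based readout, IC50 reflecting inhibition of CAL-27 cell growth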
Description: SANGER: Inhibition of human CAL-27 cell growth in a cell viability assay.

[57] = tested on: SW780; assay: cells; details: Homo sapiens;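 further: growth inhibition of the cells, read out with a cell viability assay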
Description: SANGER: Inhibition of human SW780 cell growth in a cell viability assay.

[58] = tested on: SNU-16; assay: cells; details: Homo sapiens;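 further: growth inhibition of human SNU-16 cells, determined with a cell viability readout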
Description: SANGER: Inhibition of human NCI-SNU-16 cell growth in a cell viability assay.

[59] = tested on: TCC-SUP; assay: cells; details: Homo sapiens;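 further: growth inhibition of TCC-SUP cells, read out with a cell viability assay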
Description: SANGER: Inhibition of human TCCSUP cell growth in a cell viability assay.

[60] = tested on: HCT-116; assay: cells; details: Homo sapiens
Description: SANGER: Inhibition of human HCT-116 cell growth in a cell viability assay.

CC(O)(CS(=O)(=O)c1ccc(F)cc1)C(=O)Nc1ccc(C#N)c(C(F)(F)F)c1 (stereo not given) [BICALUTAMIDE]
IC50 [1]: > 1020 nM | IC50 [2]: > 1020 nM | IC50 [3]: > 1020 nM | IC50 [4]: > 1020 nM | IC50 [5]: > 1020 nM | IC50 [6]: > 1020 nM | IC50 [7]: > 1020 nM | IC50 [8]: > 1020 nM | IC50 [9]: > 1020 nM | IC50 [10]: > 1020 nM | IC50 [11]: > 1020 nM | IC50 [12]: > 1020 nM | IC50 [13]: > 1020 nM | IC50 [14]: > 1020 nM | IC50 [15]: > 1020 nM | IC50 [16]: > 1020 nM | IC50 [17]: > 1020 nM | IC50 [18]: > 1020 nM | IC50 [19]: > 1020 nM | IC50 [20]: > 1020 nM | IC50 [21]: > 1020 nM | IC50 [22]: > 1020 nM | IC50 [23]: > 1020 nM | IC50 [24]: > 1020 nM | IC50 [25]: > 1020 nM | IC50 [26]: > 1020 nM | IC50 [27]: > 1020 nM | IC50 [28]: > 1020 nM | IC50 [29]: > 1020 nM | IC50 [30]: > 1020 nM | IC50 [31]: > 1020 nM | IC50 [32]: > 1020 nM | IC50 [33]: > 1020 nM | IC50 [34]: > 1020 nM | IC50 [35]: > 1020 nM | IC50 [36]: > 1020 nM | IC50 [37]: > 1020 nM | IC50 [38]: > 1020 nM | IC50 [39]: > 1020 nM | IC50 [40]: > 1020 nM | IC50 [41]: > 1020 nM | IC50 [42]: > 1020 nM | IC50 [43]: > 1020 nM | IC50 [44]: > 1020 nM | IC50 [45]: > 1020 nM | IC50 [46]: > 1020 nM | IC50 [47]: > 1020 nM | IC50 [48]: > 1020 nM | IC50 [49]: > 1020 nM | IC50 [50]: > 1020 nM | IC50 [51]: > 1020 nM | IC50 [52]: > 1020 nM | IC50 [53]: > 1020 nM | IC50 [54]: > 1020 nM | IC50 [55]: > 1020 nM | IC50 [56]: > 1020 nM | IC50 [57]: > 1020 nM | IC50 [58]: > 1020 nM | IC50 [59]: > 1020 nM | IC50 [60]: > 1020 nM

CCNC(=O)c1noc(-c2cc(C(C)C)c(O)cc2O)c1-c1ccc(CN2CCOCC2)cc1 [LUMINESPIB]
IC50 [1]: 32.8 nM | IC50 [2]: 27.9 nM | IC50 [3]: 25.9 nM | IC50 [4]: 144 nM | IC50 [5]: 77.3 nM | IC50 [6]: 37.7 nM | IC50 [7]: 14.2 nM | IC50 [8]: 41.6 nM | IC50 [9]: 14.3 nM | IC50 [10]: 45.7 nM | IC50 [11]: 77.3 nM | IC50 [12]: 63 nM | IC50 [13]: 43.8 nM | IC50 [14]: 96.4 nM | IC50 [15]: 129 nM | IC50 [16]: 73.3 nM | IC50 [17]: > 256 nM | IC50 [18]: 27.6 nM | IC50 [19]: > 256 nM | IC50 [20]: > 256 nM | IC50 [21]: 94.4 nM | IC50 [22]: 4.49 nM | IC50 [23]: 48.3 nM | IC50 [24]: 36.1 nM | IC50 [25]: 57.3 nM | IC50 [26]: 24.8 nM | IC50 [27]: 7.54 nM | IC50 [28]: 174 nM | IC50 [29]: 18.7 nM | IC50 [30]: 16.5 nM | IC50 [31]: > 256 nM | IC50 [32]: 10.5 nM | IC50 [33]: 37.8 nM | IC50 [34]: 80.3 nM | IC50 [35]: 13.4 nM | IC50 [36]: > 256 nM | IC50 [37]: > 256 nM | IC50 [38]: 47.6 nM | IC50 [39]: > 256 nM | IC50 [40]: > 256 nM | IC50 [41]: < 1 nM | IC50 [42]: > 256 nM | IC50 [43]: > 256 nM | IC50 [44]: 165 nM | IC50 [45]: 75.3 nM | IC50 [46]: 17.4 nM | IC50 [47]: 27.6 nM | IC50 [48]: 11.6 nM | IC50 [49]: 57.4 nM | IC50 [50]: 77.1 nM | IC50 [51]: 5.91 nM | IC50 [52]: 13 nM | IC50 [53]: > 256 nM | IC50 [54]: 10.2 nM | IC50 [55]: 53.8 nM | IC50 [56]: 81.6 nM | IC50 [57]: > 256 nM | IC50 [58]: > 256 nM | IC50 [59]: > 256 nM | IC50 [60]: 152 nM
